In patent publication US11207312B2, “Metallo-beta-lactamase inhibitors and methods of use thereof” (priority 2017, dated 2021):
pIC50: −log10 of the molar value.

What was measured:
[1] = molecular target: NDM-1 (Klebsiella pneumoniae, UniProt C7C422); experiment: biochemical; format: biochemical; conditions: CCF2-FA fluorescence assay, 2 hours at 25° C.
Method in brief: (§1)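 Metallo-β-lactamase activity read by fluorescence against CCF2-FA (1.25 μM final) in 100 mM KH2PO4 pH 7 with 0.005% Tween-20 and 10 μM ZnSO4; enzyme final at 1 pM NDM-1, 2 pM IMP-1 or 30 pM VIM-1. Inhibitor at 20 to 0.00063 μM, 2 h at 25° C; IC50 by 4-parameter fit.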

[2] = molecular target: VIM-2 (Escherichia coli, UniProt Q5U7L7); experiment: biochemical; conditions: CCF2-FA fluorescence assay; read-out: VIM2 IC50
[3] = tested on: P. aeruginosa MB9798 (efflux+, IMP-1 plasmid); conditions: for MB9798 MITC95 P. aeruginosa uM Efflux WT: efflux + (MB9798) strain, imipenem at 2 μg/mL, in the presence of a class A, C, D serine β-lactamase inhibitor closely related to relebactam; for Efflux ratio: fold difference between efflux+ (MB9798) and efflux− (MB9799) strains
Method in brief: (§2)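 Isogenic P. aeruginosa PAO1 strains (efflux+ and multiple-efflux-pump-disrupted) carrying plasmid IMP-1, with inducible AmpC, tested by broth microdilution. Imipenem and/or ceftazidime fixed, usually at CLSI breakpoint, plus fixed class A/C β-lactamase inhibitor; titrated MBL inhibitor concentration restoring susceptibility recorded and compared between strains as efflux fold difference.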

[4] = tested on: Klebsiella pneumoniae expressing VIM-1 (IHMA599644); format: cell-based; conditions: with imipenem 1 μg/ml; 95% inhibition of bacterial growth
Method in brief: (§3)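 Clinical MBL-producing strains grown overnight at 35° C, diluted 1:100 into CAMHB, then exposed to test compound with imipenem at 1 μg/ml for 22–24 h at 35° C. Absorbance read-out; MITC95 is the lowest compound concentration giving 95% growth inhibition with imipenem.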

[5] = tested on: Serratia marcescens expressing IMP-1 (CL5741); format: cell-based; conditions: with imipenem 1 μg/ml; 95% inhibition of bacterial growth
Method in brief: as §3

[6] = tested on: Escherichia coli expressing NDM-1 (CLB30016); format: cell-based; conditions: with imipenem 1 μg/ml; 95% inhibition of bacterial growth
Method in brief: as §3

[7] = tested on: P. aeruginosa MB9799 (efflux-, IMP-1 plasmid); format: cell-based, Pseudomonas aeruginosa; conditions: efflux − (MB9799) strain; imipenem at 2 μg/mL; in the presence of a class A, C, D serine β-lactamase inhibitor closely related to relebactam
Method in brief: as §2

[8] = molecular target: IMP-1 (Serratia marcescens, UniProt P52699); experiment: biochemical; conditions: CCF2-FA fluorescence assay, 2 hours at 25° C.; read-out: IMP1 IC50
Chain of IMP-1 (P52699 whole entry, looked up, species assumed): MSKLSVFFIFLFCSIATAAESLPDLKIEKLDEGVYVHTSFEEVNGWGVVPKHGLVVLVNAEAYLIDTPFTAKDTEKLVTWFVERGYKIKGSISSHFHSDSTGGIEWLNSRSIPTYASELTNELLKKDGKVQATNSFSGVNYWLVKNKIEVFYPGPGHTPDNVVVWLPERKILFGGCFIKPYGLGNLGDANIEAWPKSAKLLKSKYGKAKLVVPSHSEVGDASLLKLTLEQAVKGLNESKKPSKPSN
Method in brief: as §1

[9] = molecular target: VIM-1 (Pseudomonas aeruginosa (strain ATCC 15692 / DSM 22644 / CIP 104116 / JCM 14847 / LMG 12228 / 1C / PRS 101 / PAO1), UniProt A0A0F7KYQ8); experiment: biochemical; conditions: CCF2-FA fluorescence assay, 2 hours at 25° C.; read-out: VIM1 IC50
Method in brief: as §1

Chain of NDM-1 (C7C422 whole entry, looked up, species assumed): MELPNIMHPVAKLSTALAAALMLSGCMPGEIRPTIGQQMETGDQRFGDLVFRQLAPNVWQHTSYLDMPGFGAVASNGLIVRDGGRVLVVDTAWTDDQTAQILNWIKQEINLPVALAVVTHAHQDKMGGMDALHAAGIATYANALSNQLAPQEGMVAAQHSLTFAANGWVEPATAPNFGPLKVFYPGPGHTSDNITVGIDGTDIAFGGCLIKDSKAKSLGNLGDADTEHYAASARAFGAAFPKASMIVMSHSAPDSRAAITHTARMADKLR

Row | Compound | pIC50 [1] | pIC50 [2] | MB9798 MITC95 P. aeruginosa uM Efflux WT [3] | Efflux ratio [3] | IHMA599644 K. pneumoniae MITC95 VIM [4] | CL5741 S. marcescens MITC95 IMP [5] | CLB30016 E. coli MITC95 NDM [6] | MB9799 MITC95 P. aeruginosa uM Efflux Mutant [7] | pIC50 [8] | pIC50 [9]
1 | NCC1CCN(c2ccc(S(=O)(=O)N[C@@H]3CCNC3)c(S(N)(=O)=O)c2-c2nnn[nH]2)CC1 [Example 77, 4-[4-(aminomethyl)piperidin-1-yl]-N1-[(3R)-pyrrolidin-3-yl]-3-(1H-tetrazol-5-yl)benzene-1,2-disulfonamide] | 9.28 | 8.74 | 0.78 µM | 2.00 | 0.78 µM | 0.78 µM | 0.78 µM | 0.39 µM | 8.74 | 9.96
2 | NC[C@@H]1CCCN(c2ccc(S(=O)(=O)N[C@@H]3CCNC3)c(S(N)(=O)=O)c2-c2nnn[nH]2)C1 [Example 78, 4-[(3S)-3-(aminomethyl)piperidin-1-yl]-N1-[(3R)-pyrrolidin-3-yl]-3-(1H-tetrazol-5-yl)benzene-1,2-disulfonamide] | 8.27 | 8.52 | 6.25 µM | 8.00 | 1.56 µM | 1.56 µM | 0.39 µM | 0.78 µM | 7.45 | 9.18
3 | NS(=O)(=O)c1c(S(=O)(=O)N[C@@H]2CCNC2)ccc(N2CCNCC2)c1-c1nnn[nH]1 [Example 79, 4-piperazin-1-yl-N1-[(3R)-pyrrolidin-3-yl]-3-(1H-tetrazol-5-yl)benzene-1,2-disulfonamide] | 8.03 | 7.44 | 3.13 µM | 2.00 | 3.13 µM | 0.78 µM | 0.39 µM | 1.56 µM | 7.58 | 8.07
4 | NS(=O)(=O)c1c(S(=O)(=O)N[C@@H]2CCNC2)ccc(N2CCC(S(N)(=O)=O)CC2)c1-c1nnn[nH]1 [Example 80, N1-[(3R)-pyrrolidin-3-yl]-4-(4-sulfamoylpiperidin-1-yl)-3-(1H-tetrazol-5-yl)benzene-1,2-disulfonamide] | 9.52 | 9.18 | 1.56 µM | 1.00 | 3.13 µM | 0.78 µM | 1.56 µM | 1.56 µM | 9.37 | 9.89
5 | NS(=O)(=O)c1c(S(=O)(=O)N[C@@H]2CCNC2)ccc(N2CCC(CCO)C2)c1-c1nnn[nH]1 (stereo partly drawn) [Example 81, 4-[3-(2-hydroxyethyl)pyrrolidin-1-yl]-N1-[(3R)-pyrrolidin-3-yl]-3-(1H-tetrazol-5-yl)benzene-1,2-disulfonamide] | 9.19 | 9.00 | 6.25 µM | 2.00 | 6.25 µM | 3.13 µM | 3.13 µM | 3.13 µM | 9.21 | 9.29
6 | NC[C@H]1CCCN(c2ccc(S(=O)(=O)N[C@@H]3CCNC3)c(S(N)(=O)=O)c2-c2nnn[nH]2)C1 [Example 82, 4-[(3R)-3-(aminomethyl)piperidin-1-yl]-N1-[(3R)-pyrrolidin-3-yl]-3-(1H-tetrazol-5-yl)benzene-1,2-disulfonamide] | 7.37 | 8.03 | 6.25 µM | 2.00 | 0.78 µM | 0.78 µM | 0.78 µM | 3.13 µM | 7.34 | 9.05
